The text below walks through data of patent publication US20130171139A1, “NCAM-VASE AND NEURODEGENERATION” (priority 2010, published 2013).

Holding throughout (type): cell-based
One experiment relates to NCAM-VASE. Kind of experiment: NCAM-VASE staining of cultured cortical astrocytes. To be noted: PND4 rat cortical astrocytes; 2 days; 1 mM dbcAMP or 50 ng/ml FGF-2. The protocol:
(§1) Expression of NCAM-VASE by astrocytes was also examined. Astrocytes (>90% GFAP-positive cells) were isolated from the cortices of PND4 rat and cultured for 2 days in the absence or presence of 1 mM dbcAMP or 50 ng/ml FGF-2 in DMEM/10% FBS. Treatment with dbcAMP or FGF is known to stimulate a reactive phenotype in astrocytes, such as is found in astrocytes in the glial scars that are characteristic of damaged CNS. The astrocytes were then fixed and costained for GFAP and NCAM-VASE (as shown in FIG. 4) or total NCAM (not shown).

Another experiment deals with total NCAM. The experiment in a line: Total NCAM staining of cultured cortical astrocytes. Particulars: PND4 rat cortical astrocytes; 2 days; 1 mM dbcAMP or 50 ng/ml FGF-2. The protocol: as §1
Experiment [1] relates to PND4 rat cerebellar granule neurons. The experiment in a line: Neurite/axon outgrowth of cerebellar granule neurons cultured on 3T3 monolayers (control, NCAM or NCAM-VASE). Particulars: FGF (0.1 ng/m) or forskolin added to culture medium. The protocol: It has previously been shown that soluble NCAM-Fc stimulates axon outgrowth over control monolayers as effectively as if it were expressed in the monolayer (Meiri et al, J. Neurosci, 1998, 18, 10429-10437). […]
[…] Cerebellar granule neurons were cultured on control, NCAM-expressing (NCAM) or NCAM-VASE-expressing (VASE) monolayers in the absence of presence of soluble NCAM-Fc or NCAM-VASE-Fc (VASE-Fc).

For the molecule `CCCC(=O)Nc1ncnc2c1ncn2[C@@H]1O[C@@H]2COP(=O)(O)O[C@H]2[C@H]1OC(=O)CCC` [dBcAMP, dbcAMP, reference compound], the NCAM-VASE staining result in the experiment on NCAM-VASE is reported as “large upregulation”. Moreover, in the experiment on total NCAM, the “total NCAM staining” value was “large upregulation”.
“FGF2: fibroblast growth factor, known to stimulate axon outgrowth from cerebellar granule neurons”: the NCAM-VASE staining result in the experiment on NCAM-VASE is “large upregulation”. Also, the “total NCAM staining” value with total NCAM is recorded as “large upregulation”. Besides, the axon length result in experiment [1] (NCAM-VASE-expressing monolayers) is listed as “do not extend longer axons”. Moreover, in experiment [1] (control monolayers), the axon outgrowth entry is reported as “stimulate axon outgrowth”.
